Results published in US20120196899A1, “METHODS AND PRODUCTS FOR TREATING INFLAMMATION” (Rock Creek Pharmaceuticals, Inc., priority 2010, published 2012).

What was measured:
nAChR α7 [1] = molecular target: T1, nAChR α7 (Homo sapiens, UniProt P36544); experiment: nAChR α7 positive allosteric modulator assay (FLIPR); format: cell-based; details: with 30 μM Ach (= 0%), 30 μM Ach + 10 μM PNU-120596 = 100%
T1 construct: host or cells: CHO cells
Procedure: (§1) The following three (3) channels were evaluated: • 1. nAChR α3/β4 (encoded by the human CHRNA3 and CHRNB4 gene and stably expressed in CHO cells); • 2. nAChR α4/β2 (CHRNA4 and CHRNB2 gene and transiently expressed in HEK293 cells); and • 3. nAChR α7 (encoded by the human nicotinic α7 gene coexpressed in CHO cells with the chaperone RIC-3 encoded by the human RIC3 gene).
(§2) The ability of each test article to act as an agonist, a positive allosteric modulator or antagonist of three nAChR receptor channels was evaluated in the presence of 0.1 atropine. Both test articles were evaluated for responses on each nAChR channel at eight (8) concentrations: 0.3, 1, 3, 10, 30, 100, 300, and 1000 μM (n=4 for each concentration).
(§3) HEK293 or CHO cells were transiently or stably transfected with the appropriate human ion channel cDNAs. Stable transfectants were selected by coexpression with the antibiotic-resistance gene(s) incorporated into the expression plasmid(s). Selection pressure was maintained by including selection antibiotics in the culture medium. HEK293 cells were cultured in Dulbecco's Modified Eagle Medium/Nutrient Mixture F-12 (D-MEM/F-12) supplemented with 10% fetal bovine serum, 100 U/mL penicillin G sodium, 100 g/mL streptomycin sulfate and appropriate selection antibiotics. CHO cells were cultured in Ham's F-12 supplemented with 10% fetal bovine serum, 100 U/mL penicillin G sodium, 100 g/mL streptomycin sulfate and appropriate selection antibiotics.
(§4) For FLIPR TETRA™ assay, cells were plated in 384-well black wall, flat clear bottom microtiter plates (Type: BD Biocoat Poly-D-Lysine Multiwell Cell Culture Plate) at 20,000 to 30,000 cells per well (384-well plate). Cells were incubated at 37° C. overnight or until the cells reached a sufficient density in the wells (near confluent monolayer) to use in fluorescence assays. For α4β2 assay, cells were incubated at 27° C. for at least 7 hours before use.
(§5) Experiments were performed with either the FLIPR calcium sensitive dye kit (Fluo-8, ABDbioquest, for nAChR α3/β4 and nAChR α7) or FLIPR membrane potential kit (Molecular Devices, for nAChR α4/β2) according to the manufacturer's instructions. Briefly, cells were incubated with 201 dye for 30 min at 37° C. After dye loading period, for the agonist assay, 5 μl of the test, vehicle, or control articles at concentration of 5 times of final concentration were applied to the cells without stimulation. For the positive allosteric modulation (PAM) and antagonist assay, after test article application, the cells were stimulated with either low dose (for PAM) or high dose (for antagonist) of Ach.
The ability of each test article to act as a positive allosteric modulator of nicotinic α7 was carried out in the presence of the positive control agonist (30 μM Ach) alone. The signal elicited in the presence of the positive control agonist and allosteric modulator PNU-120596 (30 μM Ach+10 μM PNU-120596) was set to 100% and the signal from the agonist control (30 μM Ach) was set to 0%. Values were considered significant and in bold font if the test article mean was three or more standard deviations above the agonist control mean.

nAChR α7 [2] = molecular target: T1, nAChR α7; experiment: cell-based; details: with 300 μM Ach + 10 μM PNU-120596, 10 μM MLA = full inhibition, read-out: Normalized % Inhibition
nAChR α4/β2 = molecular target: T2, nAChR α4/β2 (Homo sapiens, UniProt P17787+P43681); experiment: nAChR α4/β2 positive allosteric modulator assay (FLIPR); format: cell-based; details: with 10 μM Ach (= 0%), 10 μM Ach + epibatidine = 100%
T2 construct: host or cells: HEK293 cells, transient transfection
T2 sequence (P17787 26-502): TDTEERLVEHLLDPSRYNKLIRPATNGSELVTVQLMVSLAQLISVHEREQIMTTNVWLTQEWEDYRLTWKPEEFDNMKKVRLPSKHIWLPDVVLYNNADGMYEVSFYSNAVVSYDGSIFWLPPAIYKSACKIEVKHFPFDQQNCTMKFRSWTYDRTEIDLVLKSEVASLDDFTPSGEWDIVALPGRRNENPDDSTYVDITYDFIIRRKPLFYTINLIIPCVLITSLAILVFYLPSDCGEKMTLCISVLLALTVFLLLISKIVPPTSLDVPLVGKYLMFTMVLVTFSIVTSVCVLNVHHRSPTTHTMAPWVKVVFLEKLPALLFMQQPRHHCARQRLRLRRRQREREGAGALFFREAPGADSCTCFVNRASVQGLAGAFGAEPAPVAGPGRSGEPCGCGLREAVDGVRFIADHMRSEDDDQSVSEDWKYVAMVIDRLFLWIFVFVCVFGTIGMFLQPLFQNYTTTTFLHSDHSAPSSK
T2 sequence (P43681 29-627): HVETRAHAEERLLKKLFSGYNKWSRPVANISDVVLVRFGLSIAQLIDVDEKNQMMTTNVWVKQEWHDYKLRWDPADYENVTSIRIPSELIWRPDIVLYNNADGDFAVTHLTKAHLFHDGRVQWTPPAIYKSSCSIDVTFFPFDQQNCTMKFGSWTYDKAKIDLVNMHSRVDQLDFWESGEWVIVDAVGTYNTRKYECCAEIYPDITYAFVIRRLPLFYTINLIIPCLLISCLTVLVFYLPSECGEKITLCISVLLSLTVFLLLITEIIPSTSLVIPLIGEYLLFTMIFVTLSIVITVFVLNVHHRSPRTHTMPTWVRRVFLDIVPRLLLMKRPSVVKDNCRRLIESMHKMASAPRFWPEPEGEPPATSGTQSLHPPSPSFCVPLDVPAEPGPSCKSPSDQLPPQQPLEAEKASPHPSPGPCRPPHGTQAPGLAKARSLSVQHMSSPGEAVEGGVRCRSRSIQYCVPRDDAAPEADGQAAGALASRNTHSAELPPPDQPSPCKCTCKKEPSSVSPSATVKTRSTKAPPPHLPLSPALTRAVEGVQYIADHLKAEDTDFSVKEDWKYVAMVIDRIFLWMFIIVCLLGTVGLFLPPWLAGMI
Procedure: as §1, §2, §3, §4, §5
The signal elicited in the presence of the positive control agonist and allosteric modulator epibatidine (10 μM Ach+3 μM epibatidine) was set to 100% and the signal from the agonist control (10 μM Ach) was set to 0%.

T1 sequence (P36544 23-502): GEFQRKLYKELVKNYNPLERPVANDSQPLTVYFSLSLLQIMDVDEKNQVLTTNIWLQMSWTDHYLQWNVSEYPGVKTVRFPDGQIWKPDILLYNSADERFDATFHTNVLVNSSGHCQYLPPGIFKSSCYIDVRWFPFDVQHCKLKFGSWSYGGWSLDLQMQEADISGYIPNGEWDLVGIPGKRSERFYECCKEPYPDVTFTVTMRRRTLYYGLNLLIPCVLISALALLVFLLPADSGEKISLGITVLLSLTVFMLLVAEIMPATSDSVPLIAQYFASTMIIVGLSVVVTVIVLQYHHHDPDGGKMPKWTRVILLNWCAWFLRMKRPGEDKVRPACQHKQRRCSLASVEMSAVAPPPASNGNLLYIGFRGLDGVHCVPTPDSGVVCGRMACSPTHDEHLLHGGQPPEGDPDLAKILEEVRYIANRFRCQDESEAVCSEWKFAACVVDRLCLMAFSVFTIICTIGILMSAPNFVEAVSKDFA

Compound: C1=CCC(c2cccnc2)NC1 (racemic) [Anatabine (racemate)]
- Normalized % Potentiation (nAChR α7 [1]; test conc 0.3 μM): −0.94%
- Normalized % Potentiation (nAChR α7 [1]; test conc 1 μM): −1.05%
- Normalized % Potentiation (nAChR α7 [1]; test conc 3 μM): −0.82%
- Normalized % Potentiation (nAChR α7 [1]; test conc 10 μM): −0.51%
- Normalized % Potentiation (nAChR α7 [1]; test conc 30 μM): −0.57%
- Normalized % Potentiation (nAChR α7 [1]; test conc 100 μM): −0.64%
- Normalized % Potentiation (nAChR α7 [1]; test conc 300 μM): −0.74%
- Normalized % Potentiation (nAChR α7 [1]; test conc 1000 μM): −1.05%
- inhibition at 0.3 µM (nAChR α7 [2]; test conc 0.3 μM): 22.4%
- inhibition at 1 µM (nAChR α7 [2]; test conc 1 μM): 22.2%
- inhibition at 3 µM (nAChR α7 [2]; test conc 3 μM): 45.2%
- inhibition at 10 µM (nAChR α7 [2]; test conc 10 μM): 33.4%
- inhibition at 30 µM (nAChR α7 [2]; test conc 30 μM): 22.9%
- inhibition at 100 µM (nAChR α7 [2]; test conc 100 μM): 22%
- inhibition at 300 µM (nAChR α7 [2]; test conc 300 μM): 7.51%
- inhibition at 1000 µM (nAChR α7 [2]; test conc 1000 μM): 10.8%
- Normalized % Potentiation (nAChR α4/β2; test conc 0.3 μM): −18.94%
- Normalized % Potentiation (nAChR α4/β2; test conc 1 μM): −27.03%
- Normalized % Potentiation (nAChR α4/β2; test conc 3 μM): −35.59%
- Normalized % Potentiation (nAChR α4/β2; test conc 10 μM): −42.34%
- Normalized % Potentiation (nAChR α4/β2; test conc 30 μM): −39.48%
- Normalized % Potentiation (nAChR α4/β2; test conc 100 μM): −38.34%
- Normalized % Potentiation (nAChR α4/β2; test conc 300 μM): −41.07%
- Normalized % Potentiation (nAChR α4/β2; test conc 1000 μM): −35.30%
